Measured values: ChEMBL document CHEMBL3431459, “Roche carnitine palmitoyltransferase modulator screening data (supplementary data associated with the publication CHEMBL2216752)”
Converted amounts (≈) assume the structure as drawn.

Tests used:
[1] = target: T1, Carnitine O-palmitoyltransferase 2, mitochondrial (Rattus norvegicus, UniProt P18886); test: (§1) SUPPLEMENTARY: Inhibition of Carnitine palmitoyltransferase 2
T1 sequence (P18886 whole entry): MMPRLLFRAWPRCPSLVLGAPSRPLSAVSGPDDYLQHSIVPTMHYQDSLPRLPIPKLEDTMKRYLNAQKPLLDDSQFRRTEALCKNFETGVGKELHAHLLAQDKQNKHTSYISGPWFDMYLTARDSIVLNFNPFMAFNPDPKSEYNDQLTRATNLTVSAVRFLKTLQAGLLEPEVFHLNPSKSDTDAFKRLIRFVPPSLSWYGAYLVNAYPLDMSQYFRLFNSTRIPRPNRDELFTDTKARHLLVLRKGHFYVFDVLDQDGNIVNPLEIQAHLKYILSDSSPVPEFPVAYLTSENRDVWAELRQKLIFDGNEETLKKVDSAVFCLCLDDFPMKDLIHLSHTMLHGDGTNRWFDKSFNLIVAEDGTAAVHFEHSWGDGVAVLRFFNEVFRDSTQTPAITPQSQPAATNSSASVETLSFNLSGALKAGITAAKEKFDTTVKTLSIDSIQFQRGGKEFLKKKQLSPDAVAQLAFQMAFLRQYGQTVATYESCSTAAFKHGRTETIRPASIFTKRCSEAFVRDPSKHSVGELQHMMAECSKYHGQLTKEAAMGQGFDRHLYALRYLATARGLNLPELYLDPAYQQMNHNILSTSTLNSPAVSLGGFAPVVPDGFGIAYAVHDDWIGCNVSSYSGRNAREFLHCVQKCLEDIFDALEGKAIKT

[2] = target: T2, Carnitine O-palmitoyltransferase 2, mitochondrial (Homo sapiens, UniProt P23786); test: as §1
T2 sequence (P23786 whole entry): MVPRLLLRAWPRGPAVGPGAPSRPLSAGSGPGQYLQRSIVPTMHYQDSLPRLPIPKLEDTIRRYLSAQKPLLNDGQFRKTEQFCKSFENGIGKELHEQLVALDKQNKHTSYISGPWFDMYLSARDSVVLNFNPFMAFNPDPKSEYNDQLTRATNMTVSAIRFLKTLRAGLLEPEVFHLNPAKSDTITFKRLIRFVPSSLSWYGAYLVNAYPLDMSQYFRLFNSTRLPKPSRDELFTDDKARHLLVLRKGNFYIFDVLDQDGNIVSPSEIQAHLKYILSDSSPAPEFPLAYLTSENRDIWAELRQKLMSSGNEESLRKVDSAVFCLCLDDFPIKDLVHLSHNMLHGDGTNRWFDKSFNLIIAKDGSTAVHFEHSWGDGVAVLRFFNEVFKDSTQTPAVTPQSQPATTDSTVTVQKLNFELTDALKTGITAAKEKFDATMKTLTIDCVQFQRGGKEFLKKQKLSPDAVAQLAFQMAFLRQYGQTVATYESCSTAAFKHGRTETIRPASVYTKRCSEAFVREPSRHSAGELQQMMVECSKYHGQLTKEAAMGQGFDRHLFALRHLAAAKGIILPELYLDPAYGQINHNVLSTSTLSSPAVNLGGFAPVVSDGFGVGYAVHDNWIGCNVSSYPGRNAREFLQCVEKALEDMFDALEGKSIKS

[3] = SUPPLEMENTARY: Lyophilisation Solubility Assay (LYSA); format: physicochemical; settings: read-out: Kinetic_solubility
[4] = target: T3, Carnitine O-palmitoyltransferase 1, liver isoform (Homo sapiens, UniProt P50416); test: (§2) SUPPLEMENTARY: Inhibition of Carnitine palmitoyltransferase 1, liver isoform
T3 sequence (P50416 whole entry): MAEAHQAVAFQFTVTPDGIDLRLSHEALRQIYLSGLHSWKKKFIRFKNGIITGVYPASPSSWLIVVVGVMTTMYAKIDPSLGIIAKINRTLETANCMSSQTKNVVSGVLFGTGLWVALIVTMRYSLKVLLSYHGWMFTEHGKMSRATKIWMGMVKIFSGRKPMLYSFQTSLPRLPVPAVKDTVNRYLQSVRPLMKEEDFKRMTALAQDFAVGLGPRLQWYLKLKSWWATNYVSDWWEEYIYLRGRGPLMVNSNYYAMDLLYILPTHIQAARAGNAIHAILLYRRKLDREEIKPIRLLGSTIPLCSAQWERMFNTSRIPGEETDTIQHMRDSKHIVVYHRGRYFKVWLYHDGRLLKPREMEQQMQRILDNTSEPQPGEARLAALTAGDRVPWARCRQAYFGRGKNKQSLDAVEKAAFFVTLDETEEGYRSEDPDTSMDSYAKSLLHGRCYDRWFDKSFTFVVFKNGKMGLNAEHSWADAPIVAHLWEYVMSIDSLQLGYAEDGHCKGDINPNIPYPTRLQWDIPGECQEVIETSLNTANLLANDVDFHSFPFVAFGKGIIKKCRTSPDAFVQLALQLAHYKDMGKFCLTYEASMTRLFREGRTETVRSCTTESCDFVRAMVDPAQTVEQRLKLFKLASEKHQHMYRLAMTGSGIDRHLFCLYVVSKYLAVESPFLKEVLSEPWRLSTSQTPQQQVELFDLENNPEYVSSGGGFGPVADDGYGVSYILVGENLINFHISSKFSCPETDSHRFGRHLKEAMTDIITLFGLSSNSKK

[5] = target: T4, Carnitine O-palmitoyltransferase 1, liver isoform (Rattus norvegicus, UniProt P32198); test: as §2
T4 sequence (P32198 whole entry): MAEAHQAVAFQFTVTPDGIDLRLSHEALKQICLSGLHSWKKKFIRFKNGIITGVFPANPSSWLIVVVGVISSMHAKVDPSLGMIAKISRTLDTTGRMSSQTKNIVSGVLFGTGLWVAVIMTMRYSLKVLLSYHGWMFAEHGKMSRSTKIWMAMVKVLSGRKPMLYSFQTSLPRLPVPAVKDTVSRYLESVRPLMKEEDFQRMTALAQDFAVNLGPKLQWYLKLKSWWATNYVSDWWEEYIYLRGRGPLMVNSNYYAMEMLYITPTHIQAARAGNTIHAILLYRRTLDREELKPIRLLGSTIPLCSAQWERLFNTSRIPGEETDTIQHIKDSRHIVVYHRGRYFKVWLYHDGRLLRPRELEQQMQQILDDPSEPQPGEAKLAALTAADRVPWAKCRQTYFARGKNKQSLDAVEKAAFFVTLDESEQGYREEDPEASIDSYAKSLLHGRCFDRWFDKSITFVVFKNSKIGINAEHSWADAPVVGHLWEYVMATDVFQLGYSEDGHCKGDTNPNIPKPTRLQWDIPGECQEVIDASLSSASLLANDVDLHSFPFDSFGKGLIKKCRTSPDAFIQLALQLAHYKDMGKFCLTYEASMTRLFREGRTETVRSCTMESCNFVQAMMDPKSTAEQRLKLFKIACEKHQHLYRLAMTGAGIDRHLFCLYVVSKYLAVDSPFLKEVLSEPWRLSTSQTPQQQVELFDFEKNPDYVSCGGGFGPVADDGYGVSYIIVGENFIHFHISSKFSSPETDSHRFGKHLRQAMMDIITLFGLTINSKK

[6] = target: T5, Carnitine O-palmitoyltransferase 1, muscle isoform (Homo sapiens, UniProt Q92523); test: SUPPLEMENTARY: Inhibition of Carnitine palmitoyltransferase 1, muscle isoform; set-up: species or system Muscle tissue
T5 sequence (Q92523 whole entry): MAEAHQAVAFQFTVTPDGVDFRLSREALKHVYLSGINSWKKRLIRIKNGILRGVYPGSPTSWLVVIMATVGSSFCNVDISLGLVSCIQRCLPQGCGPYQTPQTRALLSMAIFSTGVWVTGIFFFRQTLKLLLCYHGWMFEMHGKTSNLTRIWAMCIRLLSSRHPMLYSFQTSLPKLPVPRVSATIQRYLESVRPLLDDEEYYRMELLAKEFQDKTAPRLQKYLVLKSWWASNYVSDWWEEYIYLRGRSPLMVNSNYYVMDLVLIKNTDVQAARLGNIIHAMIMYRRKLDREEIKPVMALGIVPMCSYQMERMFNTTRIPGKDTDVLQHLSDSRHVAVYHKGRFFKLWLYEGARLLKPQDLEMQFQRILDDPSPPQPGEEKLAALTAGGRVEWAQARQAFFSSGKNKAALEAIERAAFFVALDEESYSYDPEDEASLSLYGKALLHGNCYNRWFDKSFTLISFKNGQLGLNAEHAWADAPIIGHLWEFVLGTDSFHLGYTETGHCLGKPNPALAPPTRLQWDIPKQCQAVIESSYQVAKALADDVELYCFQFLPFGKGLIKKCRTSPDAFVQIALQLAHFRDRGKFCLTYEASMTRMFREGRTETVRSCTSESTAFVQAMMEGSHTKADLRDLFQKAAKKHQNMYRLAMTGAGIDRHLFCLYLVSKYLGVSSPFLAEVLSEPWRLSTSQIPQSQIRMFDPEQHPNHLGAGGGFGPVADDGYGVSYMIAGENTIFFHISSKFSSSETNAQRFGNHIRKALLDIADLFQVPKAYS

[7] = SUPPLEMENTARY: PAMPA permeability assay; format: physicochemical; settings: read-out: Permeability
[8] = SUPPLEMENTARY: Lipophilicity (log D) Determination by high-throughput shake-flask; format: physicochemical; settings: octanol/water

Compound	IC50 [1] [nM]	IC50 [2] [nM]	solubility kinetic [3] [µg/mL]	IC50 [4] [nM]	IC50 [5] [nM]	IC50 [6] [nM]	Papp [7] [×10⁻⁶ cm/s]	logD [8]
CS(=O)(=O)c1cccc(-c2nc([C@H]3CCCCN3C(=O)COc3ccccc3)no2)c1	> 100000	22300	18 (≈ 40.8 µM)	206	125	> 100000	2.96	2.39
O=C(COc1ccccc1)N1CCCC[C@@H]1c1noc(-c2ccc(Cl)nc2)n1	> 100000	38200	32 (≈ 80.2 µM)	154	254	> 100000	5.17	2.98
O=C(COc1ccccc1)N1CCCC[C@@H]1c1noc(-c2ccc3ncsc3c2)n1	> 100000	18000	2 (≈ 4.76 µM)	177	147	> 100000	2.4	3.31
O=C(COc1ccccc1)N1CCCC[C@@H]1c1noc(-c2ccc3cccnc3n2)n1	> 100000	21400	31.5 (≈ 75.8 µM)	129	153	> 100000	5.43	2.35
O=C(COc1ccccc1)N1CCCC[C@@H]1c1noc(-c2ccc3cnccc3n2)n1	> 100000	17400	82 (≈ 197 µM)	188	305	> 100000	4.52	2.52

Other lines, results leading:

IC50 [1] [nM]	IC50 [2] [nM]	solubility kinetic [3] [µg/mL]	IC50 [4] [nM]	IC50 [5] [nM]	IC50 [6] [nM]	Papp [7] [×10⁻⁶ cm/s]	logD [8]	Compound
> 100000	15000	8 (≈ 18.5 µM)	98.6	98.1	> 100000	1.7	2.92	O=C(COc1ccccc1)N1CCCC[C@@H]1c1noc(-c2ccc(-n3cnnn3)cc2)n1
> 100000	84200	30 (≈ 74.4 µM)	87.3	189	> 100000	1.67	2.84	O=C(COc1ccccc1)N1CCCC[C@@H]1c1noc(-c2cccc3[nH]cnc23)n1
> 100000	4770	6 (≈ 14.8 µM)	51.4	30.4	> 100000	1.54	3.25	CC(=O)c1ccc(-c2nc([C@H]3CCCCN3C(=O)COc3ccccc3)no2)cc1
> 100000	> 100000	12 (≈ 28.9 µM)	176	235	> 100000	4.18	3.22	O=C(COc1ccccc1)N1CCCC[C@@H]1c1noc(-c2cnc3ccccc3n2)n1
71000	6600	8 (≈ 18.5 µM)	197	200	> 100000	2.21	3.38	O=C(COc1ccccc1)N1CCCC[C@@H]1c1noc(-c2ccc(C(F)(F)F)nc2)n1
42600	2740	1 (≈ 2.37 µM)	78.4	182	> 100000	2.42	> 3	O=C(COc1ccccc1)N1CCCC[C@@H]1c1noc(-c2ccc3snnc3c2)n1
